Assay results: ChEMBL document CHEMBL1137759, “Design, parallel synthesis, and crystal structures of biphenyl antithrombotics as selective inhibitors of tissue factor FVIIa complex. Part 1: Exploration of S2 pocket pharmacophores” (Bioorg Med Chem, 2009)

Target: Coagulation factor VII/tissue factor (Homo sapiens, UniProt P08709)
Assay: Inhibition of tissue factor/factor 7a
Assay type: protein-complex assay

Sequence of Coagulation factor VII/tissue factor (P08709 61-212 limits assumed): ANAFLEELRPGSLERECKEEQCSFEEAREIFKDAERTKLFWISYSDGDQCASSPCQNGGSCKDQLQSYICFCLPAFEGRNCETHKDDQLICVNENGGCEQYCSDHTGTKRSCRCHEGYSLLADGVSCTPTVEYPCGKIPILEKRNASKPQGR
Sequence of Coagulation factor VII/tissue factor (P08709 213-466 limits assumed): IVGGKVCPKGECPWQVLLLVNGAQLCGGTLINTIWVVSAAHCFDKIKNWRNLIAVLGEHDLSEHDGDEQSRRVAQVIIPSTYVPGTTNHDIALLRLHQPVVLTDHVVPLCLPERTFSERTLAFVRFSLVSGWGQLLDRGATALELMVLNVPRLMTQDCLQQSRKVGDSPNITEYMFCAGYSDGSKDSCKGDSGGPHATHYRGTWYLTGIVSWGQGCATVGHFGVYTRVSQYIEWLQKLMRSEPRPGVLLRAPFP
Sequence of Coagulation factor VII/tissue factor (P13726 33-295 partner limits assumed): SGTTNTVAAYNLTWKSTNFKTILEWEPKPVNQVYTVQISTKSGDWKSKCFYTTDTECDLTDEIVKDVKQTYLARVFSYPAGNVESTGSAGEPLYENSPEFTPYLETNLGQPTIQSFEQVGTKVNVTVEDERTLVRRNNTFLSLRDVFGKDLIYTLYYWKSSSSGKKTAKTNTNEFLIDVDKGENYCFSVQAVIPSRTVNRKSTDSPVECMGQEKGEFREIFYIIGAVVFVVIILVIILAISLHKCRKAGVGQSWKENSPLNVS

In order of falling IC50:
1. CC(C)CNC(=O)c1ccc(-c2ccc(-c3ccncc3)cc2C(=O)Nc2ccc(C(=N)N)cc2)c(C(=O)O)c1  231 nM
2. CC(C)CNC(=O)c1ccc(-c2ccc(-c3ccsc3C(=O)O)cc2C(=O)Nc2ccc(C(=N)N)cc2)c(C(=O)O)c1  190 nM
3. CC(C)CNC(=O)c1ccc(-c2ccc(-c3nccs3)cc2C(=O)Nc2ccc(C(=N)N)cc2)c(C(=O)O)c1  104 nM
4. CC(C)CNC(=O)c1ccc(-c2ccc(-c3ccccc3)cc2C(=O)Nc2ccc(C(=N)N)cc2)c(C(=O)O)c1  98 nM
5. CC(C)CNC(=O)c1ccc(-c2ccc(-c3cccn3C)cc2C(=O)Nc2ccc(C(=N)N)cc2)c(C(=O)O)c1  76 nM
6. C=CCc1ccc(-c2ccc(C(=O)NCC(C)C)cc2C(=O)O)c(C(=O)Nc2ccc(C(=N)N)cc2)c1  42 nM
7. C=C(CCO)c1ccc(-c2ccc(C(=O)NCC(C)C)cc2C(=O)O)c(C(=O)Nc2ccc(C(=N)N)cc2)c1  29 nM
8. CC(C)CNC(=O)c1ccc(-c2ccc(Cc3ccccc3)cc2C(=O)Nc2ccc(C(=N)N)cc2)c(C(=O)O)c1  21 nM
9. C=C(CO)c1ccc(-c2ccc(C(=O)NCC(C)C)cc2C(=O)O)c(C(=O)Nc2ccc(C(=N)N)cc2)c1  12 nM
10. CC(C)CNC(=O)c1ccc(-c2ccc(-c3ccoc3)cc2C(=O)Nc2ccc(C(=N)N)cc2)c(C(=O)O)c1  11 nM
11. CC(C)CNC(=O)c1ccc(-c2ccc(Cc3cccs3)cc2C(=O)Nc2ccc(C(=N)N)cc2)c(C(=O)O)c1  11 nM
12. CC(C)CNC(=O)c1ccc(-c2ccc(-c3ccco3)cc2C(=O)Nc2ccc(C(=N)N)cc2)c(C(=O)O)c1  9 nM

Target: Prothrombin (Homo sapiens, UniProt P00734)
Assay: Inhibition of thrombin

In order of rising IC50:
1. CC(C)CNC(=O)c1ccc(-c2ccc(Cc3ccccc3)cc2C(=O)Nc2ccc(C(=N)N)cc2)c(C(=O)O)c1  8510 nM
2. CC(C)CNC(=O)c1ccc(-c2ccc(-c3ccccc3)cc2C(=O)Nc2ccc(C(=N)N)cc2)c(C(=O)O)c1  11800 nM
3. CC(C)CNC(=O)c1ccc(-c2ccc(-c3ccco3)cc2C(=O)Nc2ccc(C(=N)N)cc2)c(C(=O)O)c1  14700 nM
4. CC(C)CNC(=O)c1ccc(-c2ccc(-c3ccoc3)cc2C(=O)Nc2ccc(C(=N)N)cc2)c(C(=O)O)c1  16100 nM
5. C=CCc1ccc(-c2ccc(C(=O)NCC(C)C)cc2C(=O)O)c(C(=O)Nc2ccc(C(=N)N)cc2)c1  19200 nM
6. CC(C)CNC(=O)c1ccc(-c2ccc(-c3ccncc3)cc2C(=O)Nc2ccc(C(=N)N)cc2)c(C(=O)O)c1  35400 nM
7. C=C(CO)c1ccc(-c2ccc(C(=O)NCC(C)C)cc2C(=O)O)c(C(=O)Nc2ccc(C(=N)N)cc2)c1  39700 nM
8. CC(C)CNC(=O)c1ccc(-c2ccc(Cc3cccs3)cc2C(=O)Nc2ccc(C(=N)N)cc2)c(C(=O)O)c1  42100 nM
9. C=C(CCO)c1ccc(-c2ccc(C(=O)NCC(C)C)cc2C(=O)O)c(C(=O)Nc2ccc(C(=N)N)cc2)c1  56200 nM
10. CC(C)CNC(=O)c1ccc(-c2ccc(-c3nccs3)cc2C(=O)Nc2ccc(C(=N)N)cc2)c(C(=O)O)c1  70400 nM
11. CC(C)CNC(=O)c1ccc(-c2ccc(-c3cccn3C)cc2C(=O)Nc2ccc(C(=N)N)cc2)c(C(=O)O)c1  86900 nM

Target: Plasminogen (Homo sapiens, UniProt P00747)
Assay: Inhibition of plasmin

Sequence of Plasminogen (P00747 97-580 limits assumed): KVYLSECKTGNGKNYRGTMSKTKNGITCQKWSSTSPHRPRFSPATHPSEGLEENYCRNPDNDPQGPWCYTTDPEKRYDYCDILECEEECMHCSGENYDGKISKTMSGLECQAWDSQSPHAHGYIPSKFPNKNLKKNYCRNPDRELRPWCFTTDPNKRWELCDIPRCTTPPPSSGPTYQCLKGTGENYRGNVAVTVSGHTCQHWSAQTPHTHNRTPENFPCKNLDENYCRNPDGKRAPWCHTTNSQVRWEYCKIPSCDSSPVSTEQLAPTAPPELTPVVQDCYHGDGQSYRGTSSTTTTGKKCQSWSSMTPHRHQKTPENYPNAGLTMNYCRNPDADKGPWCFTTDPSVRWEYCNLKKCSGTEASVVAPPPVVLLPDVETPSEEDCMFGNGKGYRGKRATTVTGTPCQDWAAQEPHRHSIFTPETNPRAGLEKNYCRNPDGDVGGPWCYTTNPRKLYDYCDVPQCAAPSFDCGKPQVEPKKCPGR
Sequence of Plasminogen (P00747 581-810 limits assumed): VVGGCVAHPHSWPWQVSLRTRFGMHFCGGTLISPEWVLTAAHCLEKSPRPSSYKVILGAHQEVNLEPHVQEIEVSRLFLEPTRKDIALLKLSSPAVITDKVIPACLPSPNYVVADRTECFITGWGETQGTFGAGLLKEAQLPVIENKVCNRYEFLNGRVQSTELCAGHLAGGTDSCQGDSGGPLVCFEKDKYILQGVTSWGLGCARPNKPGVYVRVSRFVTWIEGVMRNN

In order of rising IC50:
1. CC(C)CNC(=O)c1ccc(-c2ccc(-c3ccco3)cc2C(=O)Nc2ccc(C(=N)N)cc2)c(C(=O)O)c1  163 nM
2. CC(C)CNC(=O)c1ccc(-c2ccc(-c3ccoc3)cc2C(=O)Nc2ccc(C(=N)N)cc2)c(C(=O)O)c1  252 nM
3. C=C(CCO)c1ccc(-c2ccc(C(=O)NCC(C)C)cc2C(=O)O)c(C(=O)Nc2ccc(C(=N)N)cc2)c1  358 nM
4. CC(C)CNC(=O)c1ccc(-c2ccc(-c3nccs3)cc2C(=O)Nc2ccc(C(=N)N)cc2)c(C(=O)O)c1  494 nM
5. CC(C)CNC(=O)c1ccc(-c2ccc(Cc3ccccc3)cc2C(=O)Nc2ccc(C(=N)N)cc2)c(C(=O)O)c1  656 nM
6. C=C(CO)c1ccc(-c2ccc(C(=O)NCC(C)C)cc2C(=O)O)c(C(=O)Nc2ccc(C(=N)N)cc2)c1  810 nM
7. CC(C)CNC(=O)c1ccc(-c2ccc(Cc3cccs3)cc2C(=O)Nc2ccc(C(=N)N)cc2)c(C(=O)O)c1  913 nM
8. C=CCc1ccc(-c2ccc(C(=O)NCC(C)C)cc2C(=O)O)c(C(=O)Nc2ccc(C(=N)N)cc2)c1  2470 nM

System: not listed separately
Assay: Selectivity ratio of IC50 for tissue factor/factor 7a to IC50 for trypsin

In order of falling Ratio IC50:
1. C=C(CO)c1ccc(-c2ccc(C(=O)NCC(C)C)cc2C(=O)O)c(C(=O)Nc2ccc(C(=N)N)cc2)c1  295
2. CC(C)CNC(=O)c1ccc(-c2ccc(Cc3cccs3)cc2C(=O)Nc2ccc(C(=N)N)cc2)c(C(=O)O)c1  127
3. C=C(CCO)c1ccc(-c2ccc(C(=O)NCC(C)C)cc2C(=O)O)c(C(=O)Nc2ccc(C(=N)N)cc2)c1  75.5
4. C=CCc1ccc(-c2ccc(C(=O)NCC(C)C)cc2C(=O)O)c(C(=O)Nc2ccc(C(=N)N)cc2)c1  57.6
5. CC(C)CNC(=O)c1ccc(-c2ccc(-c3ccoc3)cc2C(=O)Nc2ccc(C(=N)N)cc2)c(C(=O)O)c1  42.6
6. CC(C)CNC(=O)c1ccc(-c2ccc(-c3ccco3)cc2C(=O)Nc2ccc(C(=N)N)cc2)c(C(=O)O)c1  41.4
7. CC(C)CNC(=O)c1ccc(-c2ccc(Cc3ccccc3)cc2C(=O)Nc2ccc(C(=N)N)cc2)c(C(=O)O)c1  26.9
8. CC(C)CNC(=O)c1ccc(-c2ccc(-c3nccs3)cc2C(=O)Nc2ccc(C(=N)N)cc2)c(C(=O)O)c1  14.1
9. CC(C)CNC(=O)c1ccc(-c2ccc(-c3cccn3C)cc2C(=O)Nc2ccc(C(=N)N)cc2)c(C(=O)O)c1  5.4
10. CC(C)CNC(=O)c1ccc(-c2ccc(-c3ccncc3)cc2C(=O)Nc2ccc(C(=N)N)cc2)c(C(=O)O)c1  5.3
11. CC(C)CNC(=O)c1ccc(-c2ccc(-c3ccccc3)cc2C(=O)Nc2ccc(C(=N)N)cc2)c(C(=O)O)c1  4.3

Target: Coagulation factor X (Homo sapiens, UniProt P00742)
Sequence (P00742 41-179 limits assumed): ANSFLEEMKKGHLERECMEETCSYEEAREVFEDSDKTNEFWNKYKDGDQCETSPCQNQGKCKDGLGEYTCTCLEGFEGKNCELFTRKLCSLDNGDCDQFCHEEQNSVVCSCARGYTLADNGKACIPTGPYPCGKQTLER
Sequence (P00742 235-488 limits assumed): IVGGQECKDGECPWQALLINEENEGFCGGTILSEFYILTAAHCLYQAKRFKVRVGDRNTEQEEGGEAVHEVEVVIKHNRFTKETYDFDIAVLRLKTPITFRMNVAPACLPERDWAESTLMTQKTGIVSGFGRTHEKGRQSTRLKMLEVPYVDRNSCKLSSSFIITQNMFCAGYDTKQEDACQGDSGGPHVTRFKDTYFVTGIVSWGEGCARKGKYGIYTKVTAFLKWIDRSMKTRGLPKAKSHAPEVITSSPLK

In order of falling IC50:
1. CC(C)CNC(=O)c1ccc(-c2ccc(-c3ccncc3)cc2C(=O)Nc2ccc(C(=N)N)cc2)c(C(=O)O)c1  19400 nM
2. C=C(CCO)c1ccc(-c2ccc(C(=O)NCC(C)C)cc2C(=O)O)c(C(=O)Nc2ccc(C(=N)N)cc2)c1  11300 nM
3. CC(C)CNC(=O)c1ccc(-c2ccc(Cc3cccs3)cc2C(=O)Nc2ccc(C(=N)N)cc2)c(C(=O)O)c1  8150 nM
4. C=C(CO)c1ccc(-c2ccc(C(=O)NCC(C)C)cc2C(=O)O)c(C(=O)Nc2ccc(C(=N)N)cc2)c1  7100 nM
5. C=CCc1ccc(-c2ccc(C(=O)NCC(C)C)cc2C(=O)O)c(C(=O)Nc2ccc(C(=N)N)cc2)c1  1900 nM
6. CC(C)CNC(=O)c1ccc(-c2ccc(Cc3ccccc3)cc2C(=O)Nc2ccc(C(=N)N)cc2)c(C(=O)O)c1  1750 nM
7. CC(C)CNC(=O)c1ccc(-c2ccc(-c3ccco3)cc2C(=O)Nc2ccc(C(=N)N)cc2)c(C(=O)O)c1  1300 nM
8. CC(C)CNC(=O)c1ccc(-c2ccc(-c3ccccc3)cc2C(=O)Nc2ccc(C(=N)N)cc2)c(C(=O)O)c1  350 nM
9. CC(C)CNC(=O)c1ccc(-c2ccc(-c3nccs3)cc2C(=O)Nc2ccc(C(=N)N)cc2)c(C(=O)O)c1  230 nM
10. CC(C)CNC(=O)c1ccc(-c2ccc(-c3ccoc3)cc2C(=O)Nc2ccc(C(=N)N)cc2)c(C(=O)O)c1  120 nM
11. CC(C)CNC(=O)c1ccc(-c2ccc(-c3cccn3C)cc2C(=O)Nc2ccc(C(=N)N)cc2)c(C(=O)O)c1  50 nM
